Measured values from the kinase profiling compilation of Christmann-Franck et al. (2016).
“And” between values parts separate entries of the source, which are not always exact repeats. Identical values can stand only once. Blank lines part the entries; values can stand above or below the compound they belong to.

Tests used:
Experiment in all cases: Caliper, Mobility shift assay off-chip
[1] = biological target: NEK6 (human) (UniProt Q9HC98)
[2] = biological target: ROCK1 (human) (UniProt Q13464)
[3] = biological target: KDR (human) (UniProt P35968)
[4] = biological target: PRKCA (human) (UniProt P17252)
[5] = biological target: PIM2 (human) (UniProt Q9P1W9)
[6] = biological target: IGF1R (human) (UniProt P08069)
[7] = biological target: CDK2 CCNA2 (human) (UniProt P24941+P20248)
CDK2 CCNA2 (human), sequence (P20248 whole entry, looked up, other chains not shown): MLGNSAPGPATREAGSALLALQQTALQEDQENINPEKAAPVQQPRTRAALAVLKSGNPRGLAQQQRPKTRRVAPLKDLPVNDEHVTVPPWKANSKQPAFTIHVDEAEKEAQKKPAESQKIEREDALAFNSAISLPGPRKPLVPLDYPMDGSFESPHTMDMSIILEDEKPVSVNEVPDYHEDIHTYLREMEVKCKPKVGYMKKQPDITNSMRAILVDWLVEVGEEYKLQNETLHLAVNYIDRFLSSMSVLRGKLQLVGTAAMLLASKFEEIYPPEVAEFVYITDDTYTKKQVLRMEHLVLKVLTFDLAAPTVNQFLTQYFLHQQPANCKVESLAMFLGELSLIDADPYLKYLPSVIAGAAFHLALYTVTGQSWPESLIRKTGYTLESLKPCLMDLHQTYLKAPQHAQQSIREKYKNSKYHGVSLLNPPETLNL

[8] = biological target: MAPKAPK2 (human) (UniProt P49137)
[9] = biological target: PRKCG (human) (UniProt P05129)
[10] = biological target: FLT3 (human) (UniProt P36888)
[11] = biological target: RPS6KB1 (human) (UniProt P23443)
RPS6KB1 (human), sequence (P23443 whole entry, looked up): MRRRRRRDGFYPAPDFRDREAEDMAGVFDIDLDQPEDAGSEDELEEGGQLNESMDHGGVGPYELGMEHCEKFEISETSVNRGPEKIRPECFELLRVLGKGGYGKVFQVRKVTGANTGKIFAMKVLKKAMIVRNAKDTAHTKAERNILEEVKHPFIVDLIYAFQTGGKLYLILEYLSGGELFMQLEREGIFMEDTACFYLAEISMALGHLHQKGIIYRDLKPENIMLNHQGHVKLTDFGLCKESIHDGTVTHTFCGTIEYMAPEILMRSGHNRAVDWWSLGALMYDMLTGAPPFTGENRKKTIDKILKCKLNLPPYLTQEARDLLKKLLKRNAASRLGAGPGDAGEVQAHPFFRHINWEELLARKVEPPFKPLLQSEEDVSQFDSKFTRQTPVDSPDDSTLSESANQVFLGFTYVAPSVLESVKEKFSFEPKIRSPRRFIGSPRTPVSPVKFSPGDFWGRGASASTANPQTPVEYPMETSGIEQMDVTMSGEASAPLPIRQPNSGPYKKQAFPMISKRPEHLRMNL

[12] = biological target: FGFR3 (human) (UniProt P22607)
[13] = biological target: IKBKB (human) (UniProt O14920)
[14] = biological target: MAPK8 (human) (UniProt P45983)
[15] = biological target: MAPK11 (human) (UniProt Q15759)
[16] = biological target: NEK2 (human) (UniProt P51955)
[17] = biological target: SRC (human) (UniProt P12931)
SRC (human), sequence (P12931 whole entry, looked up): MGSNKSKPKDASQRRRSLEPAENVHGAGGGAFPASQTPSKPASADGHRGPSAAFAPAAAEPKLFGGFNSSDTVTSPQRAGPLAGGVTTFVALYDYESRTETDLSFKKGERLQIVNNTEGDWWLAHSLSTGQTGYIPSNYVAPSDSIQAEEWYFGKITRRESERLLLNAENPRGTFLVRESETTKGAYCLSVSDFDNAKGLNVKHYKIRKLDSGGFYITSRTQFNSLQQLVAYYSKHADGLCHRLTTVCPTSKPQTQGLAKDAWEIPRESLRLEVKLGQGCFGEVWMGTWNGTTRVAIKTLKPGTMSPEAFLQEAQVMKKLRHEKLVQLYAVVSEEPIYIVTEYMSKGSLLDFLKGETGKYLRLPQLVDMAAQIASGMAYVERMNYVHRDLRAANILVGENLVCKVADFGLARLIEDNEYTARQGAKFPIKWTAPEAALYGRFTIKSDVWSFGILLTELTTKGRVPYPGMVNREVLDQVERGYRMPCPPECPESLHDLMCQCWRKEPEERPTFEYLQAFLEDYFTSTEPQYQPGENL

[18] = biological target: CHEK1 (human) (UniProt O14757)
[19] = biological target: MAPKAPK5 (human) (UniProt Q8IW41)
[20] = biological target: BTK (human) (UniProt Q06187)
[21] = biological target: FGFR1 (human) (UniProt P11362)
[22] = biological target: TEK (human) (UniProt Q02763)
[23] = biological target: EGFR (human) (UniProt P00533)
[24] = biological target: AKT1 (human) (UniProt P31749)
[25] = biological target: ALK (human) (UniProt Q9UM73)
[26] = biological target: CSK (human) (UniProt P41240)
[27] = biological target: EPHA2 (human) (UniProt P29317)
[28] = biological target: BRSK2 (human) (UniProt Q8IWQ3)
BRSK2 (human), sequence (Q8IWQ3 whole entry, looked up): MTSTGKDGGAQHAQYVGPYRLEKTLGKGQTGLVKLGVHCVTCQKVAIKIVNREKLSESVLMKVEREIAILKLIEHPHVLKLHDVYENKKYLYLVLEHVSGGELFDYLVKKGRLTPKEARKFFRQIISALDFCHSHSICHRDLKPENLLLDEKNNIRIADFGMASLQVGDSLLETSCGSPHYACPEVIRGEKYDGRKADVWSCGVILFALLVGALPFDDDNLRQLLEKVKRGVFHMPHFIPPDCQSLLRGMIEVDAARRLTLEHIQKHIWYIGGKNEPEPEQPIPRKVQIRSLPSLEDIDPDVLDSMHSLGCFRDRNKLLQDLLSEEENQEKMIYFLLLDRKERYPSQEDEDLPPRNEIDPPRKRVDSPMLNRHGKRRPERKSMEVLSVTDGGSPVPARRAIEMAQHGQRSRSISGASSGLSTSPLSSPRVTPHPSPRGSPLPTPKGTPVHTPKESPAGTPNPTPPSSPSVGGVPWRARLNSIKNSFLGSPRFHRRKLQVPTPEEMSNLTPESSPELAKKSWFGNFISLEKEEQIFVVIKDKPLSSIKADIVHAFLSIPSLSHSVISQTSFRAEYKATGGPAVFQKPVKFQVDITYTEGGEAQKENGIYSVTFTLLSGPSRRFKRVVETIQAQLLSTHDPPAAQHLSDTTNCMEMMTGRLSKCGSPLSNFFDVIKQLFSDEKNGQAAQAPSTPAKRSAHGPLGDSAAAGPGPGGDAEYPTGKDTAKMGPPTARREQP

[29] = biological target: EPHA4 (human) (UniProt P54764)
[30] = biological target: PAK4 (human) (UniProt O96013)
[31] = biological target: RAF1 (human) (UniProt P04049)
[32] = biological target: KIT (human) (UniProt P10721)
[33] = biological target: RPS6KA1 KD1 KD2 (human) (UniProt Q15418)
[34] = biological target: MAPK12 (human) (UniProt P53778)
MAPK12 (human), sequence (P53778 whole entry, looked up): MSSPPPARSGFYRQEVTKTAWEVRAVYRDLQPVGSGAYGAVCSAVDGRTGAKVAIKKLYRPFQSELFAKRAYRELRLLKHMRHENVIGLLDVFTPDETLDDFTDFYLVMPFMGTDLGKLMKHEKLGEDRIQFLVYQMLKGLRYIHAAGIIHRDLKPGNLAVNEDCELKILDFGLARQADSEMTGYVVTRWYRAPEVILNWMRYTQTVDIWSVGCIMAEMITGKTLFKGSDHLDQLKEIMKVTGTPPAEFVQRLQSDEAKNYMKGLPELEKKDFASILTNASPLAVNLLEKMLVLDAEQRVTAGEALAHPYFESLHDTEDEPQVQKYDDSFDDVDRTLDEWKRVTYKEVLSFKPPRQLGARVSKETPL

[35] = biological target: RPS6KA5 KD1 KD2 (human) (UniProt O75582)
[36] = biological target: PLK3 (human) (UniProt Q9H4B4)
[37] = biological target: PRKCI (human) (UniProt P41743)
[38] = biological target: MAP3K7 (human) (UniProt O43318)
MAP3K7 (human), sequence (O43318 whole entry, looked up): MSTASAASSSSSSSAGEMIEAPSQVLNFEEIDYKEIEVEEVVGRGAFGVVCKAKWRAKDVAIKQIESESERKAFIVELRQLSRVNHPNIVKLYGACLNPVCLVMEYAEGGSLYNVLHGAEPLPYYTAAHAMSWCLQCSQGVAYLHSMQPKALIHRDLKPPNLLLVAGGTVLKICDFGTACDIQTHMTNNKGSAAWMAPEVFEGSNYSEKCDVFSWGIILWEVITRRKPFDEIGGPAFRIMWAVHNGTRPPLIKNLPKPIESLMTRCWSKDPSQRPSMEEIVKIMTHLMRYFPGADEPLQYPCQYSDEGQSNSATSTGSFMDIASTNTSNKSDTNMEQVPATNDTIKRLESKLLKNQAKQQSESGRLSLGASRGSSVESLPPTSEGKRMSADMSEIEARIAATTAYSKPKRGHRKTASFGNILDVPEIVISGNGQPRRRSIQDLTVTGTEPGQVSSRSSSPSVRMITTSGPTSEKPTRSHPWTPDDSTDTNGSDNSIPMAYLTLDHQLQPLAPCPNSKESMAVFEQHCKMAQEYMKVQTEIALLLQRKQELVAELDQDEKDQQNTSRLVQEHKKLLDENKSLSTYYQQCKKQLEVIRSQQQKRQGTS

[39] = biological target: PIM1 (human) (UniProt P11309)
[40] = biological target: MAPK13 (human) (UniProt O15264)
MAPK13 (human), sequence (O15264 whole entry, looked up): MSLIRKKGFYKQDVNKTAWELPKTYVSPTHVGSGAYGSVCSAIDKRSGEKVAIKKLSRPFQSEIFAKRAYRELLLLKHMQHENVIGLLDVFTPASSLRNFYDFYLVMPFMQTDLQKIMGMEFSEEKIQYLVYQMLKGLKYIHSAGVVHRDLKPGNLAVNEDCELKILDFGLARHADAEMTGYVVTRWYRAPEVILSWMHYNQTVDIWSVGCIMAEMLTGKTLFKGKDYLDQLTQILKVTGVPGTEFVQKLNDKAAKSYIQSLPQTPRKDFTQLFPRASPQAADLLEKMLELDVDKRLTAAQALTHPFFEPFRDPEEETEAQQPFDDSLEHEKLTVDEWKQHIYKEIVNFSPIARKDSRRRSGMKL

[41] = biological target: ZAP70 (human) (UniProt P43403)

residual activity ([1]; compound 10.0 µM): 48% | residual activity ([2]; compound 10.0 µM): 26% | residual activity ([3]; compound 10.0 µM): 92% | residual activity ([4]; compound 10.0 µM): 8% | residual activity ([5]; compound 10.0 µM): 36% | residual activity ([6]; compound 10.0 µM): 61% | residual activity ([7]; compound 10.0 µM): 53% | residual activity ([8]; compound 10.0 µM): 17% | residual activity ([9]; compound 10.0 µM): 21% | residual activity ([10]; compound 10.0 µM): 25% | residual activity ([11]; compound 10.0 µM): 17% | residual activity ([12]; compound 10.0 µM): 30% | residual activity ([13]; compound 10.0 µM): 15% | residual activity ([14]; compound 10.0 µM): 10% | residual activity ([15]; compound 10.0 µM): 25% | residual activity ([16]; compound 10.0 µM): 96% | residual activity ([17]; compound 10.0 µM): 94% | residual activity ([18]; compound 10.0 µM): 10% | residual activity ([19]; compound 10.0 µM): 17% | residual activity ([20]; compound 10.0 µM): 83% | residual activity ([21]; compound 10.0 µM): 32% | residual activity ([22]; compound 10.0 µM): 105% | residual activity ([23]; compound 10.0 µM): 75% | residual activity ([24]; compound 10.0 µM): 39% | residual activity ([25]; compound 10.0 µM): 26% | residual activity ([26]; compound 10.0 µM): 101% | residual activity ([27]; compound 10.0 µM): 96% | residual activity ([28]; compound 10.0 µM): 1% | residual activity ([29]; compound 10.0 µM): 101% | residual activity ([30]; compound 10.0 µM): 78% | residual activity ([31]; compound 10.0 µM): 128% | residual activity ([32]; compound 10.0 µM): 40% | residual activity ([33]; compound 10.0 µM): 68% | residual activity ([34]; compound 10.0 µM): 46% | residual activity ([35]; compound 10.0 µM): 25% | residual activity ([36]; compound 10.0 µM): 54% | residual activity ([37]; compound 10.0 µM): 73% | residual activity ([38]; compound 10.0 µM): 12% | residual activity ([39]; compound 10.0 µM): 49% | residual activity ([40]; compound 10.0 µM): 46% | residual activity ([41]; compound 10.0 µM): 117%
SMILES: CC(C)(C)c1nc2c3ccc(F)cc3c3c(=O)[nH]ccc3c2[nH]1

residual activity ([1]; compound 1.0 µM): 114% | residual activity ([2]; compound 1.0 µM): 96% | residual activity ([3]; compound 1.0 µM): 106% | residual activity ([4]; compound 1.0 µM): 98% | residual activity ([5]; compound 1.0 µM): 91% | residual activity ([6]; compound 1.0 µM): 103% | residual activity ([7]; compound 1.0 µM): 99% | residual activity ([8]; compound 1.0 µM): 96% | residual activity ([9]; compound 1.0 µM): 86% | residual activity ([10]; compound 1.0 µM): 9% | residual activity ([11]; compound 1.0 µM): 85% | residual activity ([12]; compound 1.0 µM): 88% | residual activity ([13]; compound 1.0 µM): 105% | residual activity ([14]; compound 1.0 µM): 94% | residual activity ([15]; compound 1.0 µM): 85% | residual activity ([16]; compound 1.0 µM): 93% | residual activity ([17]; compound 1.0 µM): 86% | residual activity ([18]; compound 1.0 µM): 54% | residual activity ([19]; compound 1.0 µM): 78% | residual activity ([20]; compound 1.0 µM): 94% | residual activity ([21]; compound 1.0 µM): 48% | residual activity ([22]; compound 1.0 µM): 95% | residual activity ([23]; compound 1.0 µM): 109% | residual activity ([24]; compound 1.0 µM): 103% | residual activity ([25]; compound 1.0 µM): 100% | residual activity ([26]; compound 1.0 µM): 107% | residual activity ([27]; compound 1.0 µM): 127% | residual activity ([28]; compound 1.0 µM): 81% | residual activity ([29]; compound 1.0 µM): 100% | residual activity ([30]; compound 1.0 µM): 99% | residual activity ([31]; compound 1.0 µM): 94% | residual activity ([32]; compound 1.0 µM): 100% | residual activity ([33]; compound 1.0 µM): 83% | residual activity ([34]; compound 1.0 µM): 98% | residual activity ([35]; compound 1.0 µM): 93% | residual activity ([36]; compound 1.0 µM): 111% | residual activity ([37]; compound 1.0 µM): 121% | residual activity ([38]; compound 1.0 µM): 32% | residual activity ([39]; compound 1.0 µM): 103% | residual activity ([40]; compound 1.0 µM): 115% | residual activity ([41]; compound 1.0 µM): 120%
SMILES: O=C(NCCCNc1nc(Nc2cccc(NC(=O)N3CCCC3)c2)ncc1I)c1cccs1

SMILES: O=C(N[C@@H](COc1ccc2[nH]c(=O)[nH]c2c1)c1ccccc1)c1cccn(Cc2ccc(F)c(F)c2)c1=O
residual activity ([1]; compound 10.0 µM): 99% | residual activity ([2]; compound 10.0 µM): 97% | residual activity ([3]; compound 10.0 µM): 101% | residual activity ([4]; compound 10.0 µM): 98% | residual activity ([5]; compound 10.0 µM): 100% | residual activity ([6]; compound 10.0 µM): 116% | residual activity ([7]; compound 10.0 µM): 99% | residual activity ([8]; compound 10.0 µM): 98% | residual activity ([9]; compound 10.0 µM): 104% | residual activity ([10]; compound 10.0 µM): 103% | residual activity ([11]; compound 10.0 µM): 104% | residual activity ([12]; compound 10.0 µM): 122% | residual activity ([13]; compound 10.0 µM): 100% | residual activity ([14]; compound 10.0 µM): 125% | residual activity ([15]; compound 10.0 µM): 100% | residual activity ([16]; compound 10.0 µM): 94% | residual activity ([17]; compound 10.0 µM): 94% and 101% | residual activity ([18]; compound 10.0 µM): 105% | residual activity ([19]; compound 10.0 µM): 98% | residual activity ([20]; compound 10.0 µM): 107% | residual activity ([21]; compound 10.0 µM): 86% | residual activity ([22]; compound 10.0 µM): 105% | residual activity ([23]; compound 10.0 µM): 89% | residual activity ([24]; compound 10.0 µM): 107% | residual activity ([25]; compound 10.0 µM): 116% | residual activity ([26]; compound 10.0 µM): 114% | residual activity ([27]; compound 10.0 µM): 127% | residual activity ([28]; compound 10.0 µM): 111% | residual activity ([29]; compound 10.0 µM): 101% | residual activity ([30]; compound 10.0 µM): 105% | residual activity ([31]; compound 10.0 µM): 109% | residual activity ([32]; compound 10.0 µM): 107% | residual activity ([33]; compound 10.0 µM): 107% | residual activity ([34]; compound 10.0 µM): 115% | residual activity ([35]; compound 10.0 µM): 109% | residual activity ([36]; compound 10.0 µM): 96% | residual activity ([37]; compound 10.0 µM): 97% | residual activity ([38]; compound 10.0 µM): 101% | residual activity ([39]; compound 10.0 µM): 104% | residual activity ([40]; compound 10.0 µM): 114% | residual activity ([41]; compound 10.0 µM): 100%

residual activity ([1]; compound 10.0 µM): 109% | residual activity ([2]; compound 10.0 µM): 46% | residual activity ([3]; compound 10.0 µM): 50% | residual activity ([4]; compound 10.0 µM): 94% | residual activity ([5]; compound 10.0 µM): 24% | residual activity ([6]; compound 10.0 µM): 66% | residual activity ([7]; compound 10.0 µM): 118% | residual activity ([8]; compound 10.0 µM): 78% | residual activity ([9]; compound 10.0 µM): 88% | residual activity ([10]; compound 10.0 µM): 8% | residual activity ([11]; compound 10.0 µM): 0% | residual activity ([12]; compound 10.0 µM): 25% | residual activity ([13]; compound 10.0 µM): 39% | residual activity ([14]; compound 10.0 µM): 55% | residual activity ([15]; compound 10.0 µM): 81% | residual activity ([16]; compound 10.0 µM): 80% | residual activity ([17]; compound 10.0 µM): 14% | residual activity ([18]; compound 10.0 µM): 75% | residual activity ([19]; compound 10.0 µM): 50% | residual activity ([20]; compound 10.0 µM): 75% | residual activity ([21]; compound 10.0 µM): 4% | residual activity ([22]; compound 10.0 µM): 5% | residual activity ([23]; compound 10.0 µM): 71% | residual activity ([24]; compound 10.0 µM): 25% | residual activity ([25]; compound 10.0 µM): 42% | residual activity ([26]; compound 10.0 µM): 82% | residual activity ([27]; compound 10.0 µM): 95% | residual activity ([28]; compound 10.0 µM): 57% | residual activity ([29]; compound 10.0 µM): 77% | residual activity ([30]; compound 10.0 µM): 106% | residual activity ([31]; compound 10.0 µM): 94% | residual activity ([32]; compound 10.0 µM): 71% | residual activity ([33]; compound 10.0 µM): 13% | residual activity ([34]; compound 10.0 µM): 85% | residual activity ([35]; compound 10.0 µM): 39% | residual activity ([36]; compound 10.0 µM): 110% | residual activity ([37]; compound 10.0 µM): 107% | residual activity ([38]; compound 10.0 µM): 83% | residual activity ([39]; compound 10.0 µM): 3% | residual activity ([40]; compound 10.0 µM): 43% | residual activity ([41]; compound 10.0 µM): 99%
SMILES: COc1ccc(C#Cc2ccc3ncc4ncn(-c5ccc(CCN)cc5)c4c3c2)cc1
